Earlier results, collected in US20190367449A1, “PHENYLCREATINE, ITS USE AND METHOD FOR ITS PRODUCTION” (priority 2017, published 2019).

Settings: in vivo; cited from earlier work

## CN(CC(=O)O)C(=N)N.Cl [creatine hydrochloride]
  Relative bioavailability, higher than of creatine monohydrate: about 50%
